# Results from patent US10675300B2, “Group 3 metal compounds and use thereof in the treatment of solid tumors” (UNIVERSITÀ DEGLI STUDI DI SALERNO, priority 2016, dated 2020).
# Tested on: DU145 (prostate cancer) and MDA.MB213 (Triple Negative breast cancer) cells
# Assay: MTT cell growth inhibition assay on human tumor cell lines
# Format: cell-based
# Settings: 48 hours exposition; for IC50: read-out: DL50 (lethal dose 50, dose at which there is 50% of cell growth inhibition)
# Excerpt: (§1) FIG. 1 the evaluation of the inhibitory activity of CAM2 (a), CAM3 (b) and CAM4 (c) on the cell growth of DU145 cells in presence of different concentrations, determined by MTT assay. The cell viability was expressed as percentage of proliferated cells with respect to the cells treated with the different compounds and the same cells used as control and
# as §1, with “2” for “1”, “MDA.MB231” for “DU145”, “control.” for “control and”
# MDA.MB213—Human cell line of breast cancer acquired by ATCC (American Tissue Cell Colture—ATCC® HTB-26™), triple negative for ER receptor
# DU145—Human cell line of prostate cancer acquired by ATCC (American Tissue Cell Colture—ATCC® HTB-81™)
# MTT Cell Proliferation Assay Kit—Purchased by TREVIGEN—Catalog #4890-025-K
# The compound was dissolved in a solution of DMSO concentrated at 100%, therefrom the dilutions programmed according to the scheme shown in figure A and B are obtained and in 96-multiwell plates 2×10^4 cells are deposited (plated).
# After 24 hours the compounds under study in contact with the cells at the pre-established concentrations are used, in order to determine the lethal dose 50, that is the dose thereat there is 50% of cell growth inhibition.
# After 48 hours of exposition to our compound, the growth inhibition effect is determined by means of a colorimetric assay.
# The MTT assay is a measurement of sensitivity of cell proliferation based upon the decrease in the salt of tetrazolium, 3, [4,5-dimethyithiazol-2-]-2,5-diphenyl-bromide-tetrazolium (MTT).
# (§2) Changes in the cell proliferative activity caused by our compounds can be quantified with MTT. MTT is reduced to an insoluble colouring agent, by the mitochondrial enzymes associated to the metabolic activity. MTT reduction is mainly due to the glycolytic activity inside the cell associated to the presence of NADH and NADPH.
# The compound was dissolved in a solution of DMSO concentrated at 100%, therefrom the dilutions programmed according to the scheme shown in figure A and B are obtained, and in 96-multiwell plates 2×10^4 cells are deposited (plated).
# After 24 hours the compounds under study in contact with the cells at pre-established concentrations are used, in order to determine the lethal dose 50, that is the dose thereat there is 50% of cell growth inhibition.
# as §2, with “The MTT assay is a measurement of cell proliferation sensitivity based upon the reduction in the salt of tetrazolium, 3, [4,5-dimethylthiazol-2-]-2,5-diphenyl bromide-tetrazolium (MTT). Changes” for “Changes”
# The compound was dissolved in a solution of DMSO concentrated at 100%, therefrom the dilutions programmed according to the scheme shown in A e B are obtained, in 96-multiwell plates 2×10^4 cells are deposited (plated).
# as §2, with “MTT assay is a measurement of the cell proliferation sensitivity based upon the reduction in the salt of tetrazolium, 3, [4,5-dimethylthiazol-2-]-2,5-diphenyl bromide-tetrazolium (MTT). Changes” for “Changes”
# [1] = 5 μM, cell line not specified (DU145 / MDA.MB213)
# [2] = cell line not specified (DU145 / MDA.MB213)
Substance,growth inhibition [1],"growth inhibition (40 μM (higher concentrations), cell line not specified)",IC50 [2],"growth inhibition (10 μM (higher concentrations), cell line not specified)","DL50 (lethal dose 50, dose at which there is 50% of cell growth inhibition) [2]","growth inhibition (lower concentrations (not specified), cell line not specified)","growth inhibition (20 μM, cell line not specified (DU145 / MDA.MB213))"
[Cp-CH2—C6H5—OCH3]2ScCl [CAM4],14%,88%,20 µM,–,–,–,–
[Cp-CH2—C6H5—OCH3)]ScCl2 [CAM3],–,–,–,95%,5/10,40%,–
[Cp-CH2—C6H5—OCH3]2YCl [CAM2],58%,–,< 5 µM,–,–,–,95%
